The supplement of paper PMC10307832

Key:
[1] = compound: CC1=C(N=C(N=C1N)[C@H](CC(=O)N)NC[C@@H](C(=O)N)N)C(=O)N[C@@H]([C@H](C2=CN=CN2)OC3C(C(C(C(O3)CO)O)O)OC4C(C(C(C(O4)CO)O)OC(=O)N)O)C(=O)N[C@H](C)[C@H]([C@H](C)C(=O)N[C@@H]([C@@H](C)O)C(=O)NCCC5=NC(=CS5)C6=NC(=CS6)C(=O)NCCC[S+](C)C)O [Bleomycin]; assay: relative viability (nuclei count vs DMSO), 5 days (fraction); higher = more cells survive; settings: main component drawn
Procedure, shortened: (§1)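 In 1536-well plates, lung cancer cell lines rested overnight at 37 °C before five library-drug doses (not always all listed), √10 apart, were pinned onto vehicle-anchored plates. Nuclei were counted with MetaXpress from 4× Hoechst images taken after 5 days without medium change. Viability compares treated-well with vehicle-well nuclei as a median over plates, and plates needed control CV below 25% plus at least one doubling to pass.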

[2] = compound: COc1cc([C@@H]2c3cc4c(cc3[C@@H](O[C@@H]3O[C@@H]5CO[C@@H](C)O[C@H]5[C@H](O)[C@H]3O)[C@H]3COC(=O)[C@H]23)OCO4)cc(OC)c1O [Etoposide]; assay: as above
Procedure, shortened: as §1

Cell Line	relative viability ([1]; 0.01 µM)	relative viability ([1]; 0.03162 µM)	relative viability ([1]; 0.1 µM)	relative viability ([1]; 0.3162 µM)	relative viability ([1]; 1 µM)	relative viability ([2]; 0.01 µM)	relative viability ([2]; 0.03162 µM)	relative viability ([2]; 0.1 µM)	relative viability ([2]; 0.3162 µM)	relative viability ([2]; 1 µM)
201T	0.909	0.95	0.922	0.756	0.634	0.906	0.988	0.845	0.881	0.526
A549	0.843	0.789	0.608	0.132	0.0828	0.875	0.947	0.476	0.281	0.131
A-427	0.795	0.811	0.748	0.326	0.2	0.968	1.12	0.699	0.612	0.237
ABC-1	0.741	0.942	0.891	0.383	0.29	1.08	0.954	0.697	0.41	0.273
BEN	0.94	0.943	0.973	0.638	0.742	0.932	0.986	–	1	0.913
CAL-12T	0.755	0.824	0.545	0.273	0.202	0.946	1.04	0.797	0.726	0.333
COR-L23	0.831	0.799	0.586	0.188	0.129	0.865	1.05	0.976	0.704	0.324
COR-L 105	0.943	0.87	0.759	0.556	0.404	0.979	0.98	0.638	0.823	0.662
Calu-6	0.77	0.784	0.495	0.205	0.174	0.938	0.985	1.05	0.684	0.365
ChaGo-K-1	0.832	0.895	0.846	0.58	0.387	1.04	1.06	0.858	0.481	0.308
EBC-1	0.893	0.951	0.905	0.836	0.602	0.977	1.06	0.714	0.872	0.562
EKVX	0.928	0.898	0.797	0.374	0.321	0.998	1.01	0.637	0.741	0.377
EMC-BAC-2	0.72	0.91	0.747	0.418	0.302	0.964	0.959	0.453	0.278	0.234
EPLC-272H	0.811	0.882	0.434	0.132	0.151	1.05	1.09	0.658	0.815	0.513
H3255	0.837	1.02	0.821	0.61	0.502	0.962	1.09	0.73	0.725	0.433
HARA	0.804	0.769	0.842	0.506	0.537	0.856	1.18	0.979	0.849	0.348

Cell Line	relative viability ([1]; 0.01 µM)	relative viability ([1]; 0.03162 µM)	relative viability ([1]; 0.1 µM)	relative viability ([1]; 0.3162 µM)	relative viability ([1]; 1 µM)	relative viability ([2]; 0.01 µM)	relative viability ([2]; 0.03162 µM)	relative viability ([2]; 0.1 µM)	relative viability ([2]; 0.3162 µM)	relative viability ([2]; 1 µM)
HCC-15	0.937	0.873	0.879	0.424	0.382	1.01	1.07	1	0.485	0.182
HCC-44	0.587	0.445	0.361	0.226	0.209	1.06	1.03	1.02	0.899	0.594
HCC-78	0.788	0.994	0.883	0.564	0.642	0.942	1.09	0.687	0.515	0.273
HCC-366	0.923	0.722	0.591	0.182	0.0724	0.992	1.07	0.769	0.377	0.0702
HCC-827	0.983	1.08	0.9	0.577	0.277	1.07	1.08	0.965	0.659	0.258
HOP-62	0.47	0.473	0.257	0.183	0.107	1.06	1.11	0.824	0.712	0.372
IA-LM	0.873	0.852	0.839	0.347	0.356	0.88	0.946	0.742	0.875	0.655
LC-2-ad	0.756	0.726	0.549	0.262	0.192	0.974	1.07	0.837	0.718	0.261
LCLC-97TM1	0.394	0.525	0.258	0.16	0.0918	0.945	1.14	0.634	0.468	0.138
LCLC-103H	0.916	0.94	0.982	0.569	0.382	0.976	1.15	0.879	0.942	0.864
LK-2	0.686	0.575	0.485	0.28	0.277	0.979	1.31	0.684	0.663	0.268
LOU-NH91	0.838	0.689	0.614	0.448	0.339	0.978	1.01	0.853	0.826	0.486
LU99A	0.766	0.794	0.659	0.407	0.242	0.934	1.17	0.499	0.681	0.233
LXF-289	0.94	0.972	0.912	0.539	0.231	1.05	1.04	1.13	0.878	0.311
NCI-H23	0.458	0.439	0.304	0.218	0.161	1.02	1.03	0.671	0.371	0.212
NCI-H322M	0.861	1.02	0.928	0.568	0.54	0.947	1.05	0.822	0.838	0.52
